Assay results: EP1758924B1, “PEPTIDES ANTAGONISTS FOR […] SHOCK PROTEIN (HSP 16.3) OF MYCOBACTERIUM TUBERCULOSIS” (priority 2004, dated 2005)
Several values for one entry are separate records, joined by “and”; a condition that tells them apart may be missing. Equal values may be shown once. Residues, ends and D or L forms follow the SMILES beside them.

How the values were obtained:
Hsp16.3 [1] = biological target: T1, Hsp16.3 (Mycobacterium tuberculosis, UniProt P9WMK1); experiment: biochemical; assay type: binding; conditions: fluoresceinated peptide 200 nM, 50 mM sodium phosphate buffer, pH 7.5, 300 mM NaCl, 25°C, single-site fit
Hsp16.3 [2] = biological target: T1, Hsp16.3; experiment: Peptide inhibition assay for Hsp16.3 chaperon activity (heat-induced ADH aggregation, A360); assay type: biochemical; conditions: for IC50: IC50 (concentration of peptide at which 50% inhibition of chaperon activity was observed), 5 µM ADH, 50°C, ADH:Hsp16.3 5:4, A360 at 1200 sec
Excerpt: The binding of a peptide need not necessarily result in inhibition. Inhibition will happen only if binding leads to significant changes in the active site. […] A part of the invention is the development of a peptide inhibition assay for Hsp16.3. The method is based on aggregation based assays. The standard assay used for assaying the activity of alpha-crystallin like proteins is to study the protection it confers against heat induced aggregation of proteins, the aggregation activity being measured spectrophotometrically. Yeast alcohol dehydrogenase (ADH), purchased from Sisco Research Laboratory, Mumbai, India, is used for aggregation studies. Aggregation of 5 µM ADH at 50°C can be measured as an apparent optical density at 360 nm using a spectrophotometer equipped with a thermostated cuvette holder in a total reaction volume of 500 µl. The chaperon activity of Hsp16.3 can be determined by mixing ADH with Hsp16.3 at a molar ratio of 5:4 which is equivalent to a ratio of about 12:1 between ADH and Hsp16.3 assuming a nonameric structure of Hsp16.3 as the functional unit (Chang et al., 1996) and aggregation rates again determined spectrophotometrically. Then the same experiment can be repeated in the presence of increasing concentrations of peptide inhibitors.
A part of the invention is the peptide inhibition assay for Hsp16.3 comprising of heat treating ADH alone, ADH + Hsp16.3 and ADH + Hsp16.3 + 25, 50 and 100 µM peptide. When ADH is heated it aggregates and there is an increase of optical density. In the presence of Hsp16.3 aggregation is prevented, but in the presence of peptide aggregation is again observed if Hsp16.3 activity is inhibited. Aggregation of 5 µM ADH at 50°C was measured as an apparent optical density at 360 nm using Hitachi spectrophotometer equipped with a thermostated cuvette holder in a total reaction volume of 500 µl. The chaperon activity of Hsp16.3 was determined by mixing ADH with Hsp16.3 at a molar ratio of 5:4 and aggregation rates were again determined spectrophotometrically. Then the same experiment was performed in the presence of increasing concentrations of the Hsp16.3 binding peptides (Seq IDs 10 and 22) (Figure 2).
Aggregation assays were performed by heating 5 µM Alcohol dehydrogenase (ADH) to 50°C directly in a spectrophotometer using a thermostated cuvette holder in a total reaction volume of 500 µl. Absorbance was monitored at 360 nm (A360) for 1200 seconds and readings were taken at every 100 seconds interval. When the A360 values were plotted against time (black triangle) it was observed that absorbance increased with time reaching near saturation level at the1200 sec time point. The increase in absorbance indicates aggregation of ADH. […] However the same effect may be obtained if the peptide instead of inhibiting the activity of Hsp16.3 promotes the aggregation of ADH. To eliminate such a possibility a control experiment was done in which the peptide alone was added to ADH.
To obtain a more quantitative interpretation of the data the % residual chaperon activity of Hsp 16.3 in the presence of different concentrations of inhibitor was derived as follows, the A360 values at the saturation point (1200 secs) being taken into consideration.
The % chaperon activity was then plotted against peptide concentration (Fig. 2B). From the resulting curve it is apparent that chaperon activity decreases exponentially with increasing concentration of peptide. […]

human alphaB-crystallin = biological target: T2, human alphaB-crystallin (Homo sapiens, UniProt P02511); experiment: ADH aggregation assay with alphaB-crystallin instead of Hsp16.3 (specificity); assay type: biochemical; conditions: 25, 50, 100 µM peptide; ADH:alphaB-crystallin 5:4
T2 construct: expression vector from Dr. W.C; Boelens, University of Nijmegen
T2 sequence (P02511 1-175): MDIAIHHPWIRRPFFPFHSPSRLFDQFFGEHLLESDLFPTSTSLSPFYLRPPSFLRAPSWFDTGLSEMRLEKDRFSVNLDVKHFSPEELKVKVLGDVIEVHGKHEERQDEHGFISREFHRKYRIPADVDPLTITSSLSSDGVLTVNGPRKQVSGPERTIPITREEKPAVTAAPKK

Hsp16.3 [3] = biological target: T1, Hsp16.3; experiment: NMR (TOCSY) comparison of amide proton chemical shifts of free peptide and peptide with Hsp16.3; assay type: binding; conditions: 0.1 mM protein, 2 mM peptide, 20 mM sodium phosphate pH 7.0, 250 mM NaCl, 4°C
Protocol: All NMR spectra were taken in a Bruker DRX-500 NMR spectrometer equipped with a Z-field gradient probe. All measurements were done in high precision 5-mm NMR tubes in 20 mM sodium phosphate buffer, pH 7.0, containing 250 mM NaCl in 90% H2O and 10% D2O. All NMR experiments were done at 4°C, unless stated otherwise. TOCSY spectra were measured using standard pulse sequences in the Bruker pulse library using WATERGATE water suppression method. Standard Bruker software (Xwin-NMR version 1.3) was used to acquire and process the NMR data. The NMR samples were adjusted to a protein concentration of 0.1 mM and a 20-fold ligand excess (2 mM) over binding sites was used throughout the studies.
The comparison of chemical shifts of amide protons of free peptide (Seq ID 10) (A) and peptide with Hsp16.3 protein (B). Resonance assignments are indicated with a one-letter amino acid code. All NMR spectra were taken in a Bruker DRX-500 spectrometer equipped with a Z-field gradient probe. All measurements were done in high precision 5-mm NMR tubes in 20 mM sodium phosphate buffer, pH 7.0, containing 250 mM NaCl in 90% H2O and 10% D2O at 4°C. TOCSY spectra were measured using standard pulse sequences in the Bruker pulse library using WATERGATE water suppression method. Standard Bruker software (Xwin-NMR version 1.3) was used to acquire and process the NMR data. […]

T1 sequence (P9WMK1 whole entry, looked up): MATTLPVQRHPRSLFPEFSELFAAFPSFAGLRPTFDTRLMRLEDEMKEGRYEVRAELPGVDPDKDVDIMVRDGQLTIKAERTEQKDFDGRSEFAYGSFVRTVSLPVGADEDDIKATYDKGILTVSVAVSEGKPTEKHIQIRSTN

SMILES: CC[C@H](C)[C@H](NC(=O)[C@@H]1CCCN1C(=O)[C@@H](NC(=O)[C@H](Cc1c[nH]cn1)NC(=O)[C@H](CCCNC(=N)N)NC(=O)[C@H](Cc1c[nH]cn1)NC(=O)[C@H](CCCCN)NC(=O)[C@H](Cc1ccccc1)NC(=O)[C@H](Cc1c[nH]cn1)NC(=O)[C@H](Cc1c[nH]cn1)NC(=O)[C@@H]1CCCN1C(=O)[C@@H](N)Cc1ccc(O)cc1)[C@@H](C)CC)C(=O)NCC(=O)NCC(=O)NCC(=O)N[C@@H](CO)C(N)=O [Seq ID 22, Tyr-Pro-His-His-Phe-Lys-His-Arg-His-Ile-Pro-Ile-Gly-Gly-Gly-Ser] (H-YPHHFKHRHIPIGGGS-NH2)
- Kd (Hsp16.3 [1]): ~40 µM and 40 µM
- IC50 (Hsp16.3 [2]): 57 µM and 52 µM

SMILES: CSCC[C@H](NC(=O)[C@@H](N)CCCCN)C(=O)N[C@@H](Cc1c[nH]cn1)C(=O)N[C@@H](C)C(=O)N[C@H](C(=O)N[C@@H](CC(N)=O)C(=O)N[C@@H](Cc1c[nH]cn1)C(=O)NCC(=O)NCC(=O)NCC(=O)N[C@@H](CO)C(N)=O)[C@@H](C)O [Seq ID 10, Lys-Met-His-Ala-Thr-Asn-His-Gly-Gly-Gly-Ser] (H-KMHATNHGGGS-NH2)
- inhibition of chaperon activity of alphaB-crystallin (human alphaB-crystallin): no inhibition
- Kd (Hsp16.3 [1]): ~50 µM and 50 µM
- chemical shift of amide protons on addition of Hsp16.3 (Hsp16.3 [3]): significant chemical shift occured in both histidines
- aggregation restored (Hsp16.3 [2]; 100 µM peptide, A360 at saturation point, ADH:Hsp16.3 5:4): ~70%
- inhibition of chaperon activity of Hsp16.3 (Hsp16.3 [2]; 25, 50 and 100 µM peptide): dose dependent inhibition
- influence of peptide alone on aggregation of ADH (only peptide control) (Hsp16.3 [2]; ADH + 100 µM peptide, no Hsp16.3): does not influence the aggregation of ADH
- IC50 (Hsp16.3 [2]): 47 µM and ~47 µM
